{"source": "patent US10246456B2", "about": "“IRAK4 inhibiting agents” (BIOGEN MA INC., priority 2014, dated 2019)"}
{"target": "IRAK4 (Homo sapiens (Human), UniProt Q9NWZ3)", "sequence (Q9NWZ3 whole entry, species assumed)": "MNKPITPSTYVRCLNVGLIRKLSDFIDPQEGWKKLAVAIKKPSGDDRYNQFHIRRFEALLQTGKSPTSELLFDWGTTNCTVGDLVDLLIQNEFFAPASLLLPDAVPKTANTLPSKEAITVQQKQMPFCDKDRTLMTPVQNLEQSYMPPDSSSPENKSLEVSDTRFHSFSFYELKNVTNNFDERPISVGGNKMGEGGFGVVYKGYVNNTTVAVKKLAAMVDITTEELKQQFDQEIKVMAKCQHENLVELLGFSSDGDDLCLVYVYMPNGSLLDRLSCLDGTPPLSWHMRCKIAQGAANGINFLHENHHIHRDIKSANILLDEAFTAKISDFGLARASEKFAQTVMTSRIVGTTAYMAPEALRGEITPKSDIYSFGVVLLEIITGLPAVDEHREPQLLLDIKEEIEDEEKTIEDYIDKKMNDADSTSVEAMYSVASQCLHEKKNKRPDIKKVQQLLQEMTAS", "test": "IRAK-4 AlphaScreen biochemical kinase assay", "conditions": "1 nM IRAK4, 1 mM ATP, 3.5 h at RT", "how_it_was_run": "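AlphaScreen read-out: streptavidin beads bind the biotinylated peptide and protein A beads bind the anti-phosphothreonine antibody, so energy transfer reports phosphorylation of the peptide. The kinase is human IRAK-4.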", "units": {"IC50": "nM"}}
{"smiles": "CC(O)c1cccc(-n2ncc3ccc(-c4cccc([C@H](C)N)n4)cc32)n1", "note": "(single isomer, unassigned) [Example 415]", "IC50": "100 to 1000"}
{"smiles": "CCC[C@H](N)c1cccc(-c2cc([C@@H]3CCCN3)c3cnn(-c4cccc(CO)n4)c3c2)n1", "note": "[Example 573, (6-(6-(6-((S)-1-aminobutyl)pyridin-2-yl)-4-((S)-pyrrolidin-2-yl)-1H-indazol-1-yl)pyridin-2-yl)methanol]", "IC50": "< 100"}
{"smiles": "CCC[C@H](N)c1ccnc(-c2cc(OC)c3cnn(-c4cccc(CO)n4)c3c2)n1", "note": "[Example 574, (S)-(6-(6-(4-(1-aminobutyl)pyrimidin-2-yl)-4-methoxy-1H-indazol-1-yl)pyridin-2-yl)methanol]", "IC50": "< 100"}
{"smiles": "COCCC[C@H](N)c1cccc(-c2cc(-c3ccn(C)n3)c3cnn(-c4cccc(CO)n4)c3c2)n1", "note": "[Example 575, (S)-(6-(6-(6-(1-amino-4-methoxybutyl)pyridin-2-yl)-4-(1-methyl-1H-pyrazol-3-yl)-1H-indazol-1-yl)pyridin-2-yl)methanol]", "IC50": "< 100"}
{"smiles": "CCC[C@@H](N)c1ccnc(-c2cc(OC)c3cnn(-c4cccc(CO)n4)c3c2)n1", "note": "[Example 576, (R)-(6-(6-(4-(1-aminobutyl)pyrimidin-2-yl)-4-methoxy-1H-indazol-1-yl)pyridin-2-yl)methanol]", "IC50": "< 100"}
{"smiles": "Cc1cnc(-c2cc(-c3cccc([C@H](C)N)n3)cc3c2cnn3-c2cccc(CO)n2)o1", "note": "[Example 577, (S)-(6-(6-(6-(1-aminoethyl)pyridin-2-yl)-4-(5-methyloxazol-2-yl)-1H-indazol-1-yl)pyridin-2-yl)methanol]", "IC50": "< 100"}
{"smiles": "CCC[C@H](N)c1cccc(-c2cc(-n3ccnn3)c3cnn(-c4cccc(CO)n4)c3c2)n1", "note": "[Example 578, (S)-(6-(6-(6-(1-aminobutyl)pyridin-2-yl)-4-(1H-1,2,3-triazol-1-yl)-1H-indazol-1-yl)pyridin-2-yl)methanol]", "IC50": "< 100"}
{"smiles": "CCC[C@H](N)c1cccc(-c2cc(COC(F)(F)F)c3cnn(-c4cccc(CO)n4)c3c2)n1", "note": "[Example 579, (S)-(6-(6-(6-(1-aminobutyl)pyridin-2-yl)-4-((trifluoromethoxy)methyl)-1H-indazol-1-yl)pyridin-2-yl)methanol]", "IC50": "< 100"}
{"smiles": "CCCC[C@H](N)c1ccnc(-c2ccc3cnn(-c4cccc(CO)n4)c3c2)n1", "note": "[Example 580, (S)-(6-(6-(4-(1-aminopentyl)pyrimidin-2-yl)-1H-indazol-1-yl)pyridin-2-yl)methanol]", "IC50": "< 100"}
{"smiles": "N#CC[C@@H](N)c1cccc(-c2ccc3cnn(-c4cccc(CO)n4)c3c2)n1", "note": "[Example 581, (R)-3-amino-3-(6-(1-(6-(hydroxymethyl)pyridin-2-yl)-1H-indazol-6-yl)pyridin-2-yl)propanenitrile]", "IC50": "100 to 1000"}
{"smiles": "CCC[C@H](N)c1cccc(-c2cc(-c3ncc(C)o3)c3cnn(-c4cccc(CO)n4)c3c2)n1", "note": "[Example 582, (S)-(6-(6-(6-(1-aminobutyl)pyridin-2-yl)-4-(5-methyloxazol-2-yl)-1H-indazol-1-yl)pyridin-2-yl)methanol]", "IC50": "< 100"}
{"smiles": "CCC[C@H](N)c1ccnc(-c2cc(OCC)c3cnn(-c4cccc(CO)n4)c3c2)n1", "note": "[Example 583, (S)-(6-(6-(4-(1-aminobutyl)pyrimidin-2-yl)-4-ethoxy-1H-indazol-1-yl)pyridin-2-yl)methanol]", "IC50": "< 100"}
{"smiles": "CCC[C@@H](N)c1ccnc(-c2cc(OCC)c3cnn(-c4cccc(CO)n4)c3c2)n1", "note": "[Example 584, (R)-(6-(6-(4-(1-aminobutyl)pyrimidin-2-yl)-4-ethoxy-1H-indazol-1-yl)pyridin-2-yl)methanol]", "IC50": "< 100"}
{"smiles": "CCC[C@H](N)c1cccc(-c2cc(C(CO)CCl)c3cnn(-c4cccc(CO)n4)c3c2)n1", "note": "(stereo partly drawn) [Example 585, 2-(6-(6-((S)-1-aminobutyl)pyridin-2-yl)-1-(6-(hydroxymethyl)pyridin-2-yl)-1H-indazol-4-yl)-3-chloropropan-1-ol]", "IC50": "100 to 1000"}
{"smiles": "COCCOc1cc(-c2cccc([C@H](C)N)n2)cc2c1cnn2-c1cccc(CO)n1", "note": "[Example 586, (S)-(6-(6-(6-(1-aminoethyl)pyridin-2-yl)-4-(2-methoxyethoxy)-1H-indazol-1-yl)pyridin-2-yl)methanol]", "IC50": "< 100"}
{"smiles": "CC[C@H](N)c1cccc(-c2cc(OCCOC)c3cnn(-c4cccc(CO)n4)c3c2)n1", "note": "[Example 587, (S)-(6-(6-(6-(1-aminopropyl)pyridin-2-yl)-4-(2-methoxyethoxy)-1H-indazol-1-yl)pyridin-2-yl)methanol]", "IC50": "< 100"}
{"smiles": "COCCOc1cc(-c2cccc([C@@H](N)C3CC3)n2)cc2c1cnn2-c1cccc(CO)n1", "note": "[Example 588, (S)-(6-(6-(6-(amino(cyclopropyl)methyl)pyridin-2-yl)-4-(2-methoxyethoxy)-1H-indazol-1-yl)pyridin-2-yl)methanol]", "IC50": "< 100"}
{"smiles": "N[C@@H](CF)c1cccc(-c2ccc3cnn(-c4cccc(CO)n4)c3c2)n1", "note": "[Example 589, (R)-(6-(6-(6-(1-amino-2-fluoroethyl)pyridin-2-yl)-1H-indazol-1-yl)pyridin-2-yl)methanol]", "IC50": "< 100"}
{"smiles": "CCC[C@H](N)c1cccc(-c2ccc3cnn(-c4cncc(C)n4)c3c2)n1", "note": "[Example 590, (S)-1-(6-(1-(6-methylpyrazin-2-yl)-1H-indazol-6-yl)pyridin-2-yl)butan-1-amine]", "IC50": "< 100"}
{"smiles": "N#CC[C@H](N)c1cccc(-c2ccc3cnn(-c4cccc(CO)n4)c3c2)n1", "note": "[Example 591, (S)-3-amino-3-(6-(1-(6-(hydroxymethyl)pyridin-2-yl)-1H-indazol-6-yl)pyridin-2-yl)propanenitrile]", "IC50": "< 100"}
{"smiles": "N#CCC[C@H](N)c1cccc(-c2ccc3cnn(-c4cccc(CO)n4)c3c2)n1", "note": "[Example 592, (S)-4-amino-4-(6-(1-(6-(hydroxymethyl)pyridin-2-yl)-1H-indazol-6-yl)pyridin-2-yl)butanenitrile]", "IC50": "< 100"}
{"smiles": "COCCOc1cc(-c2cccc([C@@H](N)CF)n2)cc2c1cnn2-c1cccc(CO)n1", "note": "[Example 594, (R)-(6-(6-(6-(1-amino-2-fluoroethyl)pyridin-2-yl)-4-(2-methoxyethoxy)-1H-indazol-1-yl)pyridin-2-yl)methanol]", "IC50": "< 100"}
{"smiles": "CCC[C@H](N)c1ccnc(-c2cc(OCCOC)c3cnn(-c4cccc(CO)n4)c3c2)n1", "note": "[Example 595, (S)-(6-(6-(4-(1-aminobutyl)pyrimidin-2-yl)-4-(2-methoxyethoxy)-1H-indazol-1-yl)pyridin-2-yl)methanol]", "IC50": "< 100"}
{"smiles": "CCC[C@@H](N)c1ccnc(-c2cc(OCCOC)c3cnn(-c4cccc(CO)n4)c3c2)n1", "note": "[Example 596, (R)-(6-(6-(4-(1-aminobutyl)pyrimidin-2-yl)-4-(2-methoxyethoxy)-1H-indazol-1-yl)pyridin-2-yl)methanol]", "IC50": "< 100"}
{"smiles": "CCC[C@H](N)c1cccc(-c2cc(C3CCOC3)c3cnn(-c4cccc(CO)n4)c3c2)n1", "note": "(stereo partly drawn) [Example 597, (6-(6-(6-((S)-1-aminobutyl)pyridin-2-yl)-4-(tetrahydrofuran-3-yl)-1H-indazol-1-yl)pyridin-2-yl)methanol]", "IC50": "< 100"}
{"smiles": "CCC[C@H](N)c1cccc(-c2cc(OCC3CC(F)(F)C3)c3cnn(-c4cccc(CO)n4)c3c2)n1", "note": "[Example 598, (S)-(6-(6-(6-(1-aminobutyl)pyridin-2-yl)-4-((3,3-difluorocyclobutyl)methoxy)-1H-indazol-1-yl)pyridin-2-yl)methanol]", "IC50": "< 100"}
{"tested_on": "IL-6 in A549 cells", "test": "Cell-based IL-6 ELISA assay in IL-1beta stimulated A549 cells", "conditions": "2 ng/ml human IL-1beta overnight", "method": "The cell-based assays is based on IL-6 ELISA quantification. Briefly, A549 cells are cultured in DMEM with 10% FBS medium. When cells reach 80% confluence they are trypsin treated and seeded 180 ul/well in 96-well plate at 2.5×10^4 cells/well. Then, 20 ul of compound serial dilutions (starting at 10 uM, 10 points) are added to the cell plate; incubate for 30 min at 37 C and stimulated with 2 ng/ml human IL-1beta 37 C, 5% CO2 overnight. The next day 100 ul of cell supernatant per well are analyzed on a Human IL-6 Quantikine ELISA kit from R&D Systems.", "units": {"EC50": "nM"}}
{"smiles": "CC(O)c1cccc(-n2ncc3ccc(-c4cccc([C@H](C)N)n4)cc32)n1", "note": "(single isomer, unassigned) [Example 415]", "EC50": "≤ 1000"}
{"smiles": "CCC[C@H](N)c1cccc(-c2cc(N3CCCCC3)c3cnn(-c4cccc(CO)n4)c3c2)n1", "note": "[Example 324, (S)-(6-(6-(6-(1-aminobutyl)pyridin-2-yl)-4-(piperidin-1-yl)-1H-indazol-1-yl)pyridin-2-yl)methanol]", "EC50": "≤ 1000"}
{"smiles": "CCC[C@H](N)c1cccc(-c2cc(N3CCOCC3)c3cnn(-c4cccc(CO)n4)c3c2)n1", "note": "[Example 339, (S)-(6-(6-(6-(1-aminobutyl)pyridin-2-yl)-4-morpholino-1H-indazol-1-yl)pyridin-2-yl)methanol]", "EC50": "≤ 1000"}
{"smiles": "CCC[C@H](N)c1cccc(-c2cc(N3CCC3)c3cnn(-c4cccc(CO)n4)c3c2)n1", "note": "[Example 345, (S)-(6-(6-(6-(1-aminobutyl)pyridin-2-yl)-4-(azetidin-1-yl)-1H-indazol-1-yl)pyridin-2-yl)methanol]", "EC50": "≤ 1000"}
{"smiles": "CCc1cccc(-c2cc(-c3nnc(C)o3)c3cnn(-c4cccc(CO)n4)c3c2)n1", "note": "[Example 358, (6-(6-(6-ethylpyridin-2-yl)-4-(5-methyl-1,3,4-oxadiazol-2-yl)-1H-indazol-1-yl)pyridin-2-yl)methanol]", "EC50": "≤ 1000"}
{"smiles": "CCC[C@H](N)c1cccc(-c2cc(C3=CCN(C)CC3)c3cnn(-c4cccc(CO)n4)c3c2)n1", "note": "[Example 423, (S)-(6-(6-(6-(1-aminobutyl)pyridin-2-yl)-4-(1-methyl-1,2,3,6-tetrahydropyridin-4-yl)-1H-indazol-1-yl)pyridin-2-yl)methanol]", "EC50": "≤ 1000"}
{"smiles": "C[C@H](N)c1cccc(-c2cc(F)c3cnn(-c4cccc(CO)n4)c3c2)n1", "note": "[Example 475, (6-{6-[6-((S)-1-Amino-ethyl)-pyridin-2-yl]-4-fluoro-indazol-1-yl}-pyridin-2-yl)-methanol]", "EC50": "≤ 1000"}
{"smiles": "CCC(O)C(N)c1cccc(-c2ccc3cnn(-c4cccc(CO)n4)c3c2)n1", "note": "(centres unmarked) [Example 516, 1-amino-1-(6-(1-(6-(hydroxymethyl)pyridin-2-yl)-1H-indazol-6-yl)pyridin-2-yl)butan-2-ol]", "EC50": "≤ 1000"}
{"smiles": "CC(O)CC(N)c1cccc(-c2ccc3cnn(-c4cccc(CO)n4)c3c2)n1", "note": "(centres unmarked) [Example 525, 4-amino-4-(6-(1-(6-(hydroxymethyl)pyridin-2-yl)-1H-indazol-6-yl)pyridin-2-yl)butan-2-ol]", "EC50": "≤ 1000"}
